The structures appear in SMILES notation. Numbers after ± are expanded uncertainties.

The results in this text go back to the NIST ThermoML archive (doi:10.1021/je500237g).

Data set [1] can be described thus: refractive index (Na D-line) (dimensionless). As to conditions: 293.15 K; 101.33 kPa; Liquid; Standard Abbe refractometry.
The conditions of data set [2]: Liquid; for mass density: 293.15 K, 101.33 kPa, Vibrating tube method; for vapor or sublimation pressure: Ebulliometric method (Recirculating still).

The refractive index is a measure of how strongly the sample bends light. In general, mass density refers to the mass of a sample divided by its volume. What is called vapor or sublimation pressure is the pressure of vapour in equilibrium with the condensed phase. Consider `CC(C)CO` [2-methyl-1-propanol], for which the refractive index in data set [1] turned out to be 1.3954 ± 0.0007. Also, in data set [2], the mass density stood at 802.7 ± 0.8 kg/m3. For the same molecule, the “vapor or sublimation pressure” value in data set [2] (357.6 K) worked out at 40 ± 0.2 kPa.
Regarding `CCCO` [propan-1-ol], the refractive index in data set [1] is 1.3851 ± 0.0007. Further, in data set [2], the mass density is given as 804.9 ± 0.8 kg/m3. The “vapor or sublimation pressure” value in data set [2] (346.5 K) came to 40 ± 0.2 kPa.
Regarding `CCCCO` [butan-1-ol], the refractive index in data set [1] is given as 1.3992 ± 0.0007. Further, in data set [2], the mass density turned out to be 810.4 ± 0.8 kg/m3. The “vapor or sublimation pressure” value in data set [2] (367.1 K) came out at 40 ± 0.2 kPa.
Consider `CCCCCCCCCCCC` [dodecane], for which the refractive index in data set [1] is on record as 1.4218 ± 0.0007. For the same molecule, the mass density in data set [2] is 750 ± 0.8 kg/m3. The “vapor or sublimation pressure” value in data set [2] (453.7 K) is on record as 40 ± 0.2 kPa.
